{"source": "patent US7763580B2", "about": "“Methods for treating conditions associated with the accumulation of excess extracellular matrix” (University of Utah Research Foundation, priority 1999, dated 2010)", "key": {"[1]": {"test_system": "anti-Thy 1 model", "settings": "monotherapy, anti-Thy 1 model (Peters et al.); L-arginine 1% in drinking water; cited from earlier work"}, "[2]": {"test_system": "adult human mesangial cells", "assay": "Renin-induced TGFβ and fibronectin production by adult human mesangial cells (ELISA)", "type": "cell-based", "settings": "for renin-induced increase in TGFβ production: 10^−5 M inhibitor added at zero time with 10^−7 M human recombinant renin, adult cells, FIG. 7", "method": "Primary cultures of adult human mesangial cells were grown from human nephrectomy tissues using standard methods. Cells were passaged 4-7 times and then plated (3,000 cell/cm^2) in 12 well plates in 2 ml of medium (Mesangial Basal Medium (Clonetics Corp.) containing 5% FCS, 10 μg/ml penicillin and 100 μg/ml streptomycin) and allowed to grow to 70% confluency for 48 hours at 37EC, 5% CO2. Cultures were washed three times using sterile phosphate buffered saline at room temperature and then 2 ml/well of serum free MBM medium to induce quiescence. After 48 hours, the serum-free medium was removed and 2 ml/well of fresh serum-free medium was added for 24 hours. Human recombinant renin (HrRenin, Hoffman-La Roche Ltd., Basel, Switzerland) in concentrations from 10^−6 to 10^−12 M was added to each well for 24 hours. A blank (no HrRenin) was used as a control. Cells and supernatants were harvested by centrifugation after 24 hrs of culture and frozen at ^−70EC until analysis.\nThe total production and release of TGFβ into the culture supernatant was measured using an ELISA kit (R & D Systems). Induction of the matrix protein fibronectin (Fn) in the supernatant was measured using anti-fibronectin antibodies in an ELISA to provide further confirmation of induction of TGFβ. Renin-induced induction of TGFβ, fibronectin and PAI-1 mRNA were measured over time using semi-quantitative RT-PCR in a multiplex system where multiple cDNAs are amplified simultaneously according to Dostal et al., Anal. Biochem. 223:239-250 (1994), incorporated by reference herein Determinations were done in triplicate mesangial cell cultures.\n(§1) Renin inhibitor Ro42-5892 (Hoffman-LaRoche, Basel, Switzerland), Losartan™ (Merck Pharmaceuticals, West Point, Pa.), Enalapril™ (Sigma Chemical Co., St. Louis, Mo., Prod. No. E6888), or TGFβ1 neutralizing antibody (R & D Systems) were added in the amounts indicated below to separate wells in triplicate to block the renin cascade at different sites after stimulation by renin: • 10^−5 M Renin Inhibitor R042-5892 (Hoffman-LaRoche) • 10^−5 M Enalapril™ (Sigma Chemical Co., St. Louis, Mo.) • 10^−5 M Losartan™ (Merck Pharmaceuticals, West Point, Pa.) • Controls included neutralizing antibody to TGFβ (ATG) and control IgG (TgG)\n(§2) These inhibitors were added at zero time with 10^−7 M human recombinant renin (Hoffman-LaRoche)."}, "[3]": {"test_system": "Normal fetal human mesangial cells", "assay": "Renin-induced TGFβ production by fetal human mesangial cells (ELISA)", "type": "cell-based", "settings": "for renin-induced increase in TGFβ production: 10^−5 M inhibitor added at zero time with 10^−7 M human recombinant renin, FIG. 3", "method": "Normal fetal human mesangial cells (Clonetics Corp., Clonetics, Walkersville, Md.) passaged 5 to 8 times, were plated (3,000 cell/cm^2) in 12 well plates in 2 ml of medium (Mesangial Basal Medium (Clonetics Corp.) containing 5% FCS, 10 μg/ml penicillin and 100 μg/ml streptomycin) and allowed to grow to confluence for 48 hours at 37EC, 5% CO2. Cultures were washed three times using sterile phosphate buffered saline at room temperature and then 2 ml/well of serum free MBM medium to induce quiescence. After 48 hours, the serum-free medium was removed and 2 ml/well of fresh serum-free medium was added. Human recombinant renin (Hoffman-La Roche Ltd., Basel, Switzerland) in concentrations from 10^−6 to 10^−12 M was added to each well. A blank and 5 ng/ml of TGFβ (R & D Systems, Minneapolis, Minn.) were used as controls. Cells and supernatants were harvested by centrifugation after 24 hrs of culture and frozen at ^−70EC until analysis. The total production and release of TGFβ into the culture supernatant was measured using an ELISA kit (R & D Systems). Induction of PAI-1 and fibronectin in the supernatant are also measured using anti-PAI-1 and anti-fibronectin antibodies in an ELISA to provide further confirmation of the inhibition of TGFβ. TGFβ, fibronectin and PAI-1 mRNA are measured using semi-quantitative RT-PCR.\nas §1, with “(Hoffman-LaRoche) • 30 ng/ml Anti-TGFβ1 antibody (R & D Systems, #AB 101 NA) • 30 ng/ml Chicken IgG (control for anti-TGFβ1 antibody, R & D Systems, # AB 101 C) • 10^−5 M” for “(Hoffman-LaRoche) • 10^−5 M”, “Point, Pa.)” for “Point, Pa.) • Controls included neutralizing antibody to TGFβ (ATG) and control IgG (TgG)”\nas §2"}, "[4]": {"test_system": "anti-Thy-1 nephritis", "assay": "Glomerular mRNA levels after rtPA in anti-Thy-1 nephritis", "type": "in vivo, Sprague-Dawley rats", "settings": "rtPA treated, day 6, FIG. 10", "method": "(§3) Six Sprague-Dawley rats with were injected with phosphate buffered saline (PBS, as a control) and 18 rats were injected with 300 ug of mouse monoclonal OX7 antibody produced in the laboratory using commercially obtained hybridoma cells (American Type Culture Collecton (Rockville, Md., USA; Peters et al., Kidney Internatl. 54:1570-1580 (1998)) on day 1 to induce anti-Thy-1 nephritis. Injection of the anti rat-thymocyte antibody intravenously causes binding to an epitope in rat glomerular mesangial cells call Thy 1.1. The complement-mediated mesangial cell lysis that follows initiates a cascade of tissue injury, followed by a repair process that involves induction of TGFβ-driven production and deposition of ECM components. […] These alterations favor decreased plasmin generation which decreases matrix turnover and enhances matrix accumulation. Plasmin is the key to mesangial cell matrix turnover (Baricos et al, Kidney Int. 47:1037-1047 (1995)).\nThree days after the initial injection, rtPA (Genentech, Inc., San Francisco, Calif.) in a formulation designed for rodent intravenous injection (GenBank E08757) or PBS was injected intravenously. Injections were repeated twice a day from day 3 to day 5. […] Glomerular staining for ECM matrix proteins (collagen type I and III, fibronection EDA+ and tenascin) and glomerular mRNA levels of TGFβ1, fibronectin and PAI-1 were evaluated at day 6. […]"}, "[5]": {"test_system": "nephritic glomeruli", "assay": "Plasmin generation by isolated nephritic glomeruli after rtPA injection", "type": "in vivo, rats", "settings": "rtPA injected 10, 20 and 30 minutes before sacrifice; vs disease control", "method": "rtPA was injected into nephritic rats 10, 20 and 30 minutes before sacrifice. At sacrifice, glomeruli were isolated and placed in culture with a chromogenic substrate for tPA."}, "[6]": {"test_system": "anti-Thy-1 nephritis", "assay": "Glomerular ECM staining after rtPA in anti-Thy-1 nephritis", "type": "in vivo, Sprague-Dawley rats", "method": "as §3\nThree days after the initial injection, rtPA (Genentech, Inc., San Francisco, Calif.) in a formulation designed for rodent intravenous injection (GenBank E08757) or PBS was injected intravenously. Injections were repeated twice a day from day 3 to day 5. RtPA was injected i.v. at a dose of 1 mg/kg BW (n'6). Controls received saline (n'6). Glomerular staining for ECM matrix proteins (collagen type I and III, fibronection EDA+ and tenascin) and glomerular mRNA levels of TGFβ1, fibronectin and PAI-1 were evaluated at day 6. Localization of rtPA in nephritic glomeruli and the effect of rtPA on glomerular plasmin were investigated. Rats were sacrificed at day 6 and kidney tissues excised, fixed in formalin and frozen for histological analysis.\nKidney tissue sections were stained for extracellular matrix using Periodic Acid Schiff (PAS) using standard procedures and were stained for specific relevant matrix proteins such as Collagen I, Collagen IV, Fibronectin EDA and tenascin using standard immunohistochemical staining procedures. Matrix proteins were scored by image analysis of 30 glomeruli per rat."}, "[7]": {"settings": "10^−6M HrRenin, 24 hours, peak of dose response, p<0.05"}}}
{"molecule": "N=C(N)NCCC[C@H](N)C(=O)O", "note": "[L-arginine]", "values": [{"measurement": "reduction of markers of fibrotic disease", "setting": "[1]", "value": "about 50%"}]}
{"molecule": "CCCCc1nc(Cl)c(CO)n1Cc1ccc(-c2ccccc2-c2nn[nH]n2)cc1", "note": "[Losartan]", "values": [{"measurement": "reduction of markers of fibrotic disease", "setting": "[1]", "value": "about 50%"}, {"measurement": "renin-induced increase in TGFβ production", "setting": "[2]", "value": "does not reduce the renin-induced increase in TGFβ production"}, {"measurement": "renin-induced increase in TGFβ production", "setting": "[3]", "value": "does not reduce the renin-induced increase in TGFβ production"}]}
{"molecule": "CC(C)(C)S(=O)(=O)C[C@@H](Cc1ccccc1)C(=O)N[C@@H](Cc1c[nH]cn1)C(=O)N[C@@H](CC1CCCCC1)[C@@H](O)[C@@H](O)C1CC1", "note": "[Ro 42-5892]", "values": [{"measurement": "renin-induced increase in TGFβ production", "setting": "[2]", "value": "does not reduce the renin-induced increase in TGFβ production"}, {"measurement": "renin-induced increase in TGFβ production", "setting": "[3]", "value": "does not reduce the renin-induced increase in TGFβ production"}]}
{"molecule": "rtPA: recombinant tissue type plasminogen activator (Genentech)", "values": [{"measurement": "Glomerular levels of TGFβ1, FN and PAI-1 mRNA", "setting": "[4]", "value": "unchanged"}, {"measurement": "Plasmin generation by nephritic glomeruli", "setting": "[5]", "value": "significantly elevated"}, {"measurement": "percentage of the glomerular area with positive staining, fibronectin EDA+", "setting": "[6]; rtPA 1 mg/kg BW i.v. twice a day day 3 to 5, day 6, disease control 19±2, p<0.01", "value": "14±1", "unit": "%"}, {"measurement": "percentage of the glomerular area with positive staining, type IV collagen", "setting": "[6]; rtPA 1 mg/kg BW i.v. twice a day day 3 to 5, day 6, disease control 27±2, p<0.01", "value": "23±1", "unit": "%"}, {"measurement": "percentage of the glomerular area with positive staining, type I collagen", "setting": "[6]; rtPA 1 mg/kg BW i.v. twice a day day 3 to 5, day 6, disease control 33±1, p<0.001", "value": "21±3", "unit": "%"}, {"measurement": "percentage of the glomerular area with positive staining, laminin", "setting": "[6]; rtPA 1 mg/kg BW i.v. twice a day day 3 to 5, day 6, disease control 35±2, p<0.001", "value": "25±2", "unit": "%"}, {"measurement": "matrix accumulated in glomeruli", "setting": "[6]; tPA vs control, FIG. 8", "value": "overall decrease in matrix accumulated"}]}
{"molecule": "HrRenin: Human recombinant renin (Hoffman-La Roche) (protein, UniProt P00797 67-406, looked up) Renin: LTLGNTTSSVILTNYMDTQYYGEIGIGTPPQTFKVVFDTGSSNVWVPSSKCSRLYTACVYHKLFDASDSSSYKHNGTELTLRYSTGTVSGFLSQDIITVGGITVTQMFGEVTEMPALPFMLAEFDGVVGMGFIEQAIGRVTPIFDNIISQGVLKEDVFSFYYNRDSENSQSLGGQIVLGGSDPQHYEGNFHYINLIKTGVWQIQMKGVSVGSSTLLCEDGCLALVDTGASYISGSTSSIEKLMEALGAKKRLFDYVVKCNEGPTLPDISFHLGGKEYTLTSADYVFQESYSSKKLCTLAIHAMDIPPPTGPTWALGATFIRKFYTEFDRRNNRIGFALAR", "values": [{"measurement": "increase in Fn production", "setting": "[2]; [7]", "value": 1.4, "unit": "fold"}, {"measurement": "increase in TGFβ production", "setting": "[2]; [7]", "value": 2, "unit": "fold"}, {"measurement": "TGFβ and Fn production, time course", "setting": "[2]; 10^−7M HrRenin, 24 and 48 hours, p<0.03", "value": "significant increases in TGFβ and Fn production at 24 and 48 hours"}, {"measurement": "TGFβ production by cultured human mesangial cells", "setting": "[3]; renin 10^−6 to 10^−12 M, 24 hrs, FIG. 2", "value": "increases the TGFβ production by cultured human mesangial cells in a dose-dependent manner"}]}
